From patent publication US20140242606A1, “PROBE FOR iFRET AND USE THEREOF” (KOREA RESEARCH INSTITUTE OF BIOSCIENCE AND BIOTECHNOLOGY, priority 2011, published 2014)

Assays:
[1] = Fluorescence of the iFRET probe alone; assay type: physicochemical
Source text: After excitation at 260, 280, 340, and 360 nm, the emitted fluorescence spectra were examined. […]
(§1) As in FIG. 23 showing the result of using the compound of Chemical Formula XXV as a probe for iFRET, the probe itself emitted low fluorescence (blue line) at 430 nm by UV irradiation at 280 nm; the protein (streptavidin) emitted fluorescence (green line) at 340 nm by UV irradiation at 280 nm.
As in FIG. 24 showing the result of using the compound of Chemical Formula XXVI as a fluorescent probe, the probe itself emitted low fluorescence (blue line) at 460 nm by UV irradiation at 280 nm; the protein (streptavidin) emitted fluorescence (green line) at 340 nm by UV irradiation at 280. […] Further, it was confirmed that the fluorescence increasing rate at the above emission wavelength was 600% or more, indicating production of effective iFRET signals. […]

[2] = target: BSA (bovine serum albumin) (Bos taurus, UniProt P02769); test: iFRET control of probe XXIV with BSA; assay type: binding; conditions: probe (2 μM) with BSA (200 nM), PBS pH 7.4
Chain of BSA (bovine serum albumin) (P02769 25-607): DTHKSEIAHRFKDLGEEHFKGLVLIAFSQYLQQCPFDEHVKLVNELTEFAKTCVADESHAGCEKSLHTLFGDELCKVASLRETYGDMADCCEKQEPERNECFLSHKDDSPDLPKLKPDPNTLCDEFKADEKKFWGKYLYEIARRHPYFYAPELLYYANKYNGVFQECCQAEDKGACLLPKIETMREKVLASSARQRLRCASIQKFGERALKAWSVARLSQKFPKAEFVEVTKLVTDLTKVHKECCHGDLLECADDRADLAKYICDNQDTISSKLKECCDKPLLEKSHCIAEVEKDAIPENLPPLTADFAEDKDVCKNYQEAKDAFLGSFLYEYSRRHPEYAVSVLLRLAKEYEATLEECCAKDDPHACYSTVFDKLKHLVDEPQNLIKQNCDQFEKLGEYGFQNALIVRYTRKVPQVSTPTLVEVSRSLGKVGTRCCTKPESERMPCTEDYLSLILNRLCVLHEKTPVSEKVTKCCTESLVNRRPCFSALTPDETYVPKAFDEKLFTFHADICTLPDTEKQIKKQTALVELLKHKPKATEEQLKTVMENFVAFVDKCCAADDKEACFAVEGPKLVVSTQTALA
Procedure: (§2) The right graph of FIG. 18 is the result of reexamining iFRET signals using Compound XXIV, purified HSP90 protein, and a control group BSA (bovine serum albumin). 2 μM Compound XXIV was used, and HSP90 protein and BSA protein were used at the final concentration of 200 nM. At this time, the used buffer was phosphate buffered saline (PBS; pH 7.4). As shown in the figure, iFRET signals result from compound XXIV and HSP90 protein which are selectively binding.
(§3) As a control group, BSA (bovine serum albumin) was used.

[3] = system: HSP90 (heat shock protein 90) protein; test: iFRET detection of HSP90 with probe XXIV; assay type: binding
Procedure: Compound XXIV was dissolved in DMSO, and then diluted with distilled water to a final concentration of 2 μM. When Compound XXIV or the protein was present alone, no fluorescence signals were newly observed around 450 nm.
as §2
FIG. 19 is a graph showing iFRET signals detected by using HSP90 protein and Chemical Formula XXIV Selectively binding thereto.
as §3

HSP90 protein = test: Dissociation constant of iFRET probe and HSP90 (double reciprocal plot of fluorescence); assay type: binding; conditions: probe concentration fixed, HSP90 at various concentrations
Procedure: FIG. 21 is the result of binding degree of the synthesized Chemical Formula XXIV and HSP90 protein. The core structure used in the synthesis of Chemical Formula XXIV is PU-H64 (J. Med. Chem. 2006, 49, 4953-4960), and this structure binds to HSP90. The iFRET probe used in this experiment is a structure in which a fluorescent nucleus is introduced into PU-H64. In order to examine the actual binding degree of this probe and HSP90 protein, analysis of enzyme kinetics was performed to confirm that its dissociation constant is approximately 160 nM. The concentration of Chemical Formula XXIV as the iFRET probe was fixed and HSP90 was reacted at various concentrations to measure emitted fluorescence intensity. Based on this measured values, the dissociation constant was calculated. The reciprocal of the HSP90 concentration and the reciprocal of the fluorescence value were plotted to calculate the dissociation constant.

BSA = BSA (Bos taurus, UniProt P02769); test: Target specificity of probe XXVIII against BSA; assay type: binding; conditions: probe exposed to BSA
Chain of BSA (P02769 25-607): as above
Source text: (§4) In order to examine target specificity of the probe having Chemical Formula XXVIII, the probe was exposed to BSA to examine whether iFRET signals were produced by binding of the probe to BSA. […] Therefore, it was confirmed that the biotin-conjugated iFRET fluorescent probe of the present invention selectively binds to streptavidin to produce iFRET signals.

[4] = Quantum yield measurement; assay type: physicochemical; conditions: 0.1 M pH 10.0 phosphate buffer, standard 4-methyl-umbelliferone
Procedure: (§5) The quantum yield of each compound was measured in 0.1 M pH 10.0 phosphate buffer. 4-methyl-umbelliferone (ΦF 0.63) was used as a standard material, tryptophan (ΦF=0.12) was used as an FRET donor to calculate the quantum yield. FRET efficiency was calculated based on the results measured in PBS buffer at pH 7.4, and fluorescence was measured using an LS55 fluorescence spectrometer manufactured by Perkin Elmer.

streptavidin [5] = target: T1, streptavidin (Streptomyces avidinii, UniProt P22629); test: iFRET detection of streptavidin with biotin-conjugated probes; assay type: binding; conditions: UV irradiation at 280 nm
T1 sequence (P22629 25-183): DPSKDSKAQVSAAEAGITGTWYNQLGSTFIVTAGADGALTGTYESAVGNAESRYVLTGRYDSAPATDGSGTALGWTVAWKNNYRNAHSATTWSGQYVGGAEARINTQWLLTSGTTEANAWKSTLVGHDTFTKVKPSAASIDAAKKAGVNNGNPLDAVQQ
Source text: The results of detecting streptavidin using Compounds of Chemical Formulae XXV to XXVIII as probes for iFRET are shown in FIGS. 23 to 26.
as §1
As in FIG. 24 showing the result of using the compound of Chemical Formula XXVI as a fluorescent probe, the probe itself emitted low fluorescence (blue line) at 460 nm by UV irradiation at 280 nm; the protein (streptavidin) emitted fluorescence (green line) at 340 nm by UV irradiation at 280. […] Further, it was confirmed that the fluorescence increasing rate at the above emission wavelength was 600% or more, indicating production of effective iFRET signals.
Because the compound of Chemical Formula XXVII emitted fluorescence at the longer wavelength than the known iFRET probe, signal-to-noise ratio is […] during real-time cell imaging, thereby providing more clear images.
as §4

streptavidin [6] = target: T1, streptavidin; test: FRET efficiency and Forster distance of biotin-conjugated probes; assay type: binding; conditions: between iFRET probe and streptavidin
Procedure: as §5

| SMILES | fluorescence emission wavelength of probe alone ([1]; excitation / UV irradiation at 280 nm) | fluorescence intensity on excitation at 340 nm compared to excitation at 280 nm ([1]; probe alone) | iFRET signals [2] | iFRET signal around 450 nm ([3]; 2 μM probe with purified HSP90, DMSO diluted with distilled water) | fluorescence at 430 nm of mixture ([3]; mixture of probe and HSP90, excitation at 280 nm, versus HSP90 or probe alone) | Kd (HSP90 protein) [nM] | iFRET signals (BSA) | Quantum yield (ΦF) [4] | fluorescence / iFRET signal of mixture of probe and streptavidin (streptavidin [5]) | R0 (Fōrster distance) (streptavidin [6]) [nm] |
| --- | --- | --- | --- | --- | --- | --- | --- | --- | --- | --- |
| Nc1ncnc2c1nc(Sc1cc3c(cc1Br)OCO3)n2CCC(=O)NCCNc1cccc2ccccc12 [Chemical Formula XXIV, 3-(6-amino-8-(6-bromobenzo[1,3]-dioxole-5-ylthio)-9S-purin-9-yl)-N-(2-(naphthalene-1-ylamino)ethyl)propaneamide] | approximately 430 nm | approximately 2 fold | no iFRET signals | new fluorescence signals were observed | increased fluorescence | ~160 |  |  |  |  |
| CN(C)c1ccc2cc(/C=C/C(=O)NCCNC(=O)CCCC[C@@H]3SC[C@@H]4NC(=O)N[C@@H]43)c(=O)oc2c1 [Chemical Formula XXVIII, N-((E)-7-dimethylaminocoumarin-3-acryl)-N′-(biotinyl)ethylenediamide] |  |  |  |  |  |  | no signals were observed | 0.55 | iFRET signals produced | 2.102 |
